Three molecules from patent US20170333560A1, “Pharmaceutical Composition That Includes A Neutral Carrier Treated With Energy And Related Methods Of Treatment” (priority 2016, published 2017) can be followed below.

Series [1] has as its system obsessive-compulsive disorder with prevailing anxiety disorders. Put plainly: Study versus Diazepam in obsessive-compulsive disorder (HAM-A, STAI, SAN). It is filed as in vivo, human. Here is the method:
(§1) A study was conducted to examine the efficacy of the claimed drug, formulated as a water solution (liquid dosage form) of the activated (potentized) energy-treated carrier, obtained by multiple consecutive dilution of the initial matrix solution in an aqueous-alcoholic diluent, combined with external mechanical impact—shaking of each resulting dilution, to a degree of 100^200, equivalent to a centesimal (C200) homeopathic dilution (wherein the energy treatment of the initial neutral carrier has been accomplished by exposing it to an electric current caused by a difference of potentials being applied to electrodes placed in the initial liquid carrier and which is proportional in amplitude to an amplified combined, summed signal, formed by summing the resultant signals—biopotential differences of individual referential derivations recorded in five healthy donors using the internationally recognized 10-20 system, which involves 19 active recording electrodes placed in regular positions all over the scalp and one reference electrode located on the ear-lobe)—further referred to as AP drug—in treating obsessive-compulsive disorder.
The tolerability and anxiolytic efficacy of AP drug was examined versus Diazepam in patients with obsessive-compulsive disorder with prevailing anxiety disorders. Inclusion criteria: • 1. Subjects aged from 18 to 65 years. • 2. Subjects meeting the obsessive-compulsive disorder criteria (ICD-10 code F42). • 3. Subjects receiving no treatment with psychoactive agents at least for a week before and at the time of the trial.
The study included 20 patients (8 men and 12 women) aged between 19 and 62 years old. The mean patient age and mean duration of disease were 38.0±1.6 years and 2.1±0.5 years, respectively.
The duration of treatment was […]. The patients randomized to AP drug (45) received it at a dose of 20 drops 4 times daily; the rest 35 patients were assigned to receive Diazepam at 15 mg daily.
The patients were assessed for OCD symptom severity at baseline (day 0) and at days 7, 14, and 28.

The subject of series [2] is depression in patients with post-traumatic stress disorders. The experiment in a line: Comparative trial versus Heptral in stress-related depression (HAM-D, HADS, CGI). It is filed as in vivo, human. Further details: CGI Efficacy Index / CGI Severity scale total score / CGI Improvement scale total score: scale not given here. As to the method:
A randomized, […] study was conducted to examine the efficacy and safety of the claimed drug, formulated as a solid dosage form containing lactose granules impregnated with water-alcohol solution of the liquid activated (potentized) energy-treated carrier, obtained by multiple consecutive dilution of the initial matrix solution in an aqueous-alcoholic diluent, combined with external mechanical impact—shaking of each resulting dilution, to a degree of 100^200, equivalent to a centesimal (C200) homeopathic dilution (wherein the energy treatment of the initial liquid carrier has been accomplished by exposing it to an electric current caused by a difference of potentials being applied to electrodes placed in the initial liquid carrier and which is proportional in amplitude to an amplified combined, summed signal, formed by summing the resultant signals—biopotential differences of individual referential derivations recorded in five healthy donors using the internationally recognized 10-20 system, which involves 19 active recording electrodes placed in regular positions all over the scalp and one reference electrode located on the ear-lobe)—further referred to as AP drug, where it was used for treating depression in patients with post-traumatic stress disorders.
AP drug was administered to manage the depressive symptoms—in parallel to Heptral (adametionine), used as a comparator in efficacy assessment. AP drug was administered for 4 weeks at a dose of 2 tablets 4 times daily. Heptral was used at 400 mg 3 times (1200 mg) daily.
An open comparative clinical trial was performed which involved 30 patients (16 men and 14 women) assigned to two parallel groups: 15 patients in the group of AP drug and 15 in the heptral group. The mean age of participants assigned to AP drug was 38.0±4.39 years;
The period of study participation was 8 weeks (the total treatment duration of 4 weeks and 4 weeks of follow-up).
Neither of the patient groups was allowed to take psychoactive medications during the study. The drugs not prohibited for use during the treatment were medications for the underlying traumatic illness and co-existing somatic disorders. The study enrolled inpatients aged from 18 to 65 years old, who had been receiving medical attention for bodily injuries resulting from car accidents, which had taken place under circumstances threatening the life or welfare of the patient or/and their friends or family members suffering from anxiety mental disorders, such as (defined by the ICD-10) reaction to severe stress, and adjustment disorders (F43); adjustment disorders (F43.2); adjustment disorder with mixed anxiety and depressed mood (F43.23).
1. Reduced severity of depressive symptoms and signs as measured by the HADS. 2. Reduced severity of depressive symptoms and signs as measured by the HAM-D 3. Efficacy Index assessment on the Clinical Global Impression (CGI) scale.
The patients' mental health was examined at baseline—at admission to the clinic, following 1, 2 and 4 weeks of treatment, and 4 weeks after treatment discontinuation (follow-up).
The effect of study treatment was evaluated according to changes in the total HAM-D score and scoring outcomes on the HADS anxiety and depression subscales. In addition, the Clinical Global Impression scale was administered to primarily estimate the Efficacy Index for the treatment conducted.

In series [3] the test system is children with clinical signs and symptoms of a hyperkinetic disorder (HD). The experiment in a line: Comparative study versus piracetam in children with hyperkinetic disorder (SNAP-IV, TOVA, fine motor skills). It is filed as in vivo, human. As to conditions: for TOVA Commission errors, % / TOVA Omission errors, % / TOVA Response time: after two months. The text has this:
The study included 57 children aged from 6 to 9 years (40 boys and 17 girls), who were nursery/preschool attendants and primary school students.
The inclusion criteria were: 1. Children with clinical signs and symptoms of a hyperkinetic disorder (HD) meeting the ICD-10 criteria (F 90); 2. Age range: 6 to 9 years; 3. At least a medium IQ score (90 points) on the Wechsler Intelligence Scale.
The study excluded children with behavior disturbances related to other mental disorders. Children with HD signs and symptoms who were allocated to the group of test treatment (n=30) received AP drug as a monotherapy, at 2 tablets 3 times daily for 2 months.
This assessment was repeated following two months of treatment with AP drug (test group) and piracetam (control group). The scores obtained were compared with the normative rating results and statistically analyzed (Table 11).
The computer-based psychophysiological TOVA assessment involved three sets of tests measuring inattention (omission errors), impulsivity (commission errors), and speed of information processing (response time). The baseline measurements of HD children were compared with those obtained in the test group (AP drug) and in the control group (piracetam) after two months of treatment.

In series [4] the test system is scopolamine-induced amnesia in male albino Wistar rats. The experiment in a line: Scopolamine-induced amnesia for passive avoidance conditioning. It is filed as in vivo, rat. Here is the method:
as §1, with “evaluate” for “examine”, “nootropic effect” for “efficacy”, “liquid” for “neutral”, “drug, using standard experimental approaches—by examining the test drug's antiamnestic effects in scopolamine-induced amnesia for passive avoidance conditioning in sexually mature rats. A total of 36 male albino Wistar rats were used for the study.” for “drug—in treating obsessive-compulsive disorder.”
For amnesia induction, 15 minutes prior to passive avoidance training, the animals were administered a single intraperitoneal dose (2 mg/kg) of a muscarinic receptor antagonist—scopolamine.
AP drug was administered to 12 rats intragastrically, at 2.5 ml/kg daily, prior to training (1 hour before the start of the experiment), immediately after training, 24 hours post training, and 1 hour prior to the passive avoidance recall test. […]
On the memory recall test, the rats' behavior was evaluated by examining: latency time taken by test animals to first enter the dark compartment and total time spent therein over a certain time period.
The conditioning of passive avoidance behavior was as follows: On day 1, the animals were trained to stay in a shuttle box, which consisted of a large, 300×300×250 mm, white illuminated compartment (with transparent walls) and a smaller, 150×150×180 mm, black dark compartment with an electrical grid floor. […] For 3 minutes, the total times of the rat's stay in the small compartment and latency before moving in were recorded. […]
The data gathered were recorded as the mean (M) and standard error of the mean (SEM). […] The results of examining the rats' memory recall were analyzed for statistical significance with the Wilcoxon test. […]

Turning to `CN1C(=O)CN=C(c2ccccc2)c2cc(Cl)ccc21` [Diazepam], in series [1] (Day 7), the HAM-A scores is reported as 19.02. Also, in series [1] (Day 14), the HAM-A scores amounted to 12.93. In series [1] (at 28 days), the “Average reduction of HAM-A scores” value stood at 70.2%; the “Percentage of patients exhibiting treatment response (50% reduction of mean HAM-A score and over)” value was determined as 100%. Moreover, the “Mean SAN score” value in series [1] (at treatment completion) came to 3.6. In addition, the “Occurrence of adverse reactions” value in series [1] (throughout the study) is on record as 82.9%. Further, in series [1] (treatment completion), the “Reduction in trait anxiety scores (STAI)” value is recorded as 22.3% and the “Reduction of situational anxiety (STAI) scores” value amounted to 29.6%.

Turning to `C[S+](CC[C@H](N)C(=O)[O-])C[C@H]1O[C@@H](n2cnc3c(N)ncnc32)[C@H](O)[C@@H]1O` (some centres unmarked) [Heptral, adametionine], in series [2] (Visit 1 (baseline)), the “CGI Severity scale total score” value turned out to be 3.8 ± 0.17. Also, in series [2] (Visit 1 (baseline), n = 15), the “Total HADS depression score” value is given as 17.5 and the “Total HAM-D score” value turned out to be 26.2. Besides, in series [2] (Visit 2 (week 1)), the “CGI Efficacy Index” value was 1.1 ± 0.08, the “CGI Improvement scale total score” value was 2.9 ± 0.07, the “CGI Severity scale total score” value stood at 2.9 ± 0.12 and the “Total HADS depression score” value amounted to 13.2. Also, the “Total HAM-D score” value in series [2] (Visit 2 (week 1)) was found to be 23.1. Also, in series [2] (Visit 3 (week 2)), the “CGI Efficacy Index” value came to 1.8 ± 0.19, the “CGI Improvement scale total score” value was 2.1 ± 0.15, the “CGI Severity scale total score” value came to 1.9 ± 0.12 and the “Total HADS depression score” value amounted to 9.6. The “Total HAM-D score” value in series [2] (Visit 3 (week 2)) came to 15.6. Besides, in series [2] (Visit 4 (week 4)), the “CGI Efficacy Index” value was 2.3 ± 0.18, the “CGI Improvement scale total score” value is on record as 1.2 ± 0.11, the “CGI Severity scale total score” value is 1.1 ± 0.07 and the “Total HADS depression score” value stood at 6.5. In series [2] (Visit 4 (week 4)), the “Total HAM-D score” value is on record as 14.1. Moreover, in series [2] (Visit 5 (follow-up)), the “CGI Efficacy Index” value was determined as 2.3 ± 0.18, the “CGI Improvement scale total score” value is 1.1 ± 0.07, the “CGI Severity scale total score” value came out at 1.0 ± 0.00 and the “Total HADS depression score” value stood at 3.5. Besides, the “Total HAM-D score” value in series [2] (Visit 5 (follow-up)) came out at 12.1. Moreover, in series [2] (group of 15), the “Adverse event anxiety worsening” value turned out to be 2 patients, the Adverse event dizziness worked out at 5 patients and the Adverse event headache worked out at 3 patients.

Turning to `NC(=O)CN1CCCC1=O` [piracetam], in series [3] (2 months), the “Children with increased disinhibition/excitability” value came to 11.1% and the “Children with sleep problems” value amounted to 26%. In series [3] (First section), the “TOVA Commission errors, %” value was 12.5 ± 3.2%; the “TOVA Omission errors, %” value was 13.6 ± 1.4 %; the “TOVA Response time” value came to 736 ± 83 ms. In series [3] (Second section), the “TOVA Commission errors, %” value is on record as 21.1 ± 2.7%; the “TOVA Omission errors, %” value came out at 17.2 ± 2.8 %; the “TOVA Response time” value was determined as 656 ± 79 ms. In addition, in series [3] (after treatment completion), the “Total score for fine motor skills” value is on record as 1.62 ± 0.16. For the same molecule, in series [3] (after two months of treatment), the “SNAP-IV Attention problems” value stood at 2.48 ± 0.12, the “SNAP-IV Hyperactivity” value came out at 2.41 ± 0.10 and the “SNAP-IV Impulsivity” value came to 2.28 ± 0.22. Also, in series [4] (Memory recall), the “Latency to enter the aversive compartment” value turned out to be 53.71 s and the “Time spent in the black compartment” value was determined as 13.11 s. In series [4] (Training), the “Latency to enter the aversive compartment” value worked out at 11.07 s and the “Time spent in the black compartment” value was 21.1 s.
